Results from patent US7579329B2, “P450RAI-2 (P450 cytochrome 26B), encoding nucleic acid molecules and methods and uses thereof” (Cytochroma Inc., priority 1999, dated 2009).

Experiments:
P450RAI-2 [1] = assay: P450RAI-2 expression in RAFT and psoriasis biopsy samples (Northern blot, RT-PCR); type: cell-based, human
Procedure: Total RNA aliquots (10 μg) were electrophoresed on a 1.0% formaldehyde-agarose gel and a northern blot performed. The gel was photographed under ultraviolet light and then blotted on Hybond ECL nitrocellulose membrane (Amersham Pharmacia Biotech, UK) and fixed to the membrane by baking at 80° C. for 2 hours under vacuum. […] Three individual cDNA fragments were labeled with α-[^32P]dATP using the Prime-A-Gene Labeling System (Promega, WI). The probes were as follows; P450RAI-1 762-1217bp of SEQ ID NO:13, full length P450RAI-2 SEQ ID NO:4 and a human glyceraldehyde-3-phosphate dehydrogenase (GAPDH) PCR fragment. The blot was hybridized with P450RAI-2, washed two times for 5 minutes in 2×SSPE, 0.1% SDS at room temperature, then washed once at 65° C. for 10 minutes in 1×SSPE, 0.1% SDS and a final wash for 15 minutes at 65° C. in 0.1×SSPE, 0.1% SDS. The blot was exposed at −70° C. for 48 hours to Kodak X-Omat AR film (Eastman Kodak Company, NY). […] The blot was stripped by washing two times for 30 minutes in boiling 0.5% SDS and exposed to film overnight to ensure proper removal of probe. The above protocol was repeated for P450RAI-1 and GAPDH. The P450RAI-1 and GAPDH blots were exposed for 96 and 4 hours respectively.
The final primer concentrations were 45 μM for the P450RAI-1 and P450RAI-2 primers and 11.25 μM for the GAPDH-specific primers. Two separate sets of reactions were performed using the primer sets, P450RAI-1/GAPDH and P450RAI-2/GAPDH. […] The P450RAI-1, P450RAI-2 and GAPDH upstream and downstream amplification primers sets were 5′-[…]-3′ (SEQ ID NO: 35) and 5′-[…]-3′ (SEQ ID NO: 36), 5′-[…]-3′ (SEQ ID NO: 37) and 5′-[…]-3′ (SEQ ID NO: 38), 5′-[…]-3′ (SEQ ID NO: 39) and 5′-[…]-3′ (SEQ ID NO: 40) respectively. […] Both the Psoriasis samples show PCR products corresponding to P450RAI-2.

P450RAI-2 transcripts = assay: Induction of P450RAI-2 transcripts in human cell lines (Northern blot, RT-PCR); type: cell-based; details: MCF-7 cells, 10^-6 M retinoid, 12 hours, northern blot
Text: HPK1a-ras (ras-transformed human keratinocyte), COS-1 (African green monkey kidney and V79 cells (Chinese Hamster lung) were maintained in DMEM supplemented with 10% FBS (5% for V79). WTE (human non-small cell lung carcinoma and SW900 (human non-small cell lung carcinoma) cells were maintained in RPMI supplemented with 10% FBS. SK-Luci-6 (human non-small cell lung carcinoma) and SK-MES-1 (human non-small cell lung carcinoma) cells in RPMI with 5% FBS. NB4 (human acute prmyelocytic leukemia-serived) cells were maintained in RPMI supplemented with 10% FBS and gentamicin ([…]) HeLa cells (human cervical carcinoma) were maintained in MEM supplemented with 10% FBS. Previous cell lines were supplemented with penicillin (50 units/ml) streptomycin (50 ug/ml) and fungizone (0.1% final concentration). MCF-7 cells (human breast epithelial adenocarcinoma) were grown in MEM supplemented with 10% FBS, insulin (10 ng/ml), sodium pyruvate (0.5 mM), non-essential amino acids (100 nM), L-glutamine (2 mM), penicillin (5 ug.ml), streptomycin (5 ug/ml), fungizone (200 ng/ml), and gentamicin ([…]). All reagents were supplied by Life Technologies, NY. Cells lines were maintained at 37° C. in an atmosphere of 5% CO2 and 95% air.
Gels were photographed under ultraviolet light and then blotted onto Hybond ECL nitrocellulose membrane (Amersham Pharmacia Biotech, UK) and fixed to the membrane by baking at 80° C. for 2 hours under vacuum. […] Full length P450RAI-1 and P450RAI-2 cDNA were labeled with α-[^32P]dATP using Prime-A-Gene Labeling System (Promega, WI). The blot was washed two times for 15 minutes in 2×SSC, 0.1% SDS at room temperature then for 15 minutes at 60° C. in 0.1×SSC, and 0.1% SDS and exposed at −70° C. for 19 hours to Kodak X-Omat AR film (Eastman Kodak Company, NY).
The regulation of P450RAI-2 expression by various retinoids was checked in three different human cell lines, SKMES, CALU-1 and MCF-7. […] The blot was washed as follows: 2×SSPE & 0.1% SDS two washes of 5 minutes each; 1×SSPE & 0.1% SDS one wash of 15 minutes at 65° C.; 0.1×SSPE & 0.1×SDS one wash of 15 minutes at 65° C.
The blot was washed as follows: 2×SSC & 0.1% SDS two washes of 5 minutes each at room temperature; 1×SSC & 0.1% SDS one wash of 15 minutes at 65° C.; 0.1×SSC & 0.1% SDS three washes of 15 minutes each at 65° C.
The blot was washed as follows: 2×SSPE & 0.1% SDS two washes of 5 minutes each; 1×SSPE & 0.1% SDS one wash of 15 minutes at 65° C.; 0.1×SSPE & 0.1×SDS one wash of 15 minutes at 65° C.
The final primer concentrations were 45 μM for the P450RAI-2 primers and 11.25 μM for the GAPDH-specific primers.

P450RAI-1 = target: T1, P450RAI-1 (Homo sapiens, UniProt O43174); assay: Competitive inhibition of [3H]all-trans-RA metabolism in COS-1 cells transfected with pcDNA3.1-P450RAI-1; type: cell-based; design: expressed in transfected cells; host or cells: COS-1 (African green monkey kidney), transient; details: COS-1 cells expressing P450RAI-1, 2 nM [3H]all-trans-RA
T1 sequence (O43174 1-497): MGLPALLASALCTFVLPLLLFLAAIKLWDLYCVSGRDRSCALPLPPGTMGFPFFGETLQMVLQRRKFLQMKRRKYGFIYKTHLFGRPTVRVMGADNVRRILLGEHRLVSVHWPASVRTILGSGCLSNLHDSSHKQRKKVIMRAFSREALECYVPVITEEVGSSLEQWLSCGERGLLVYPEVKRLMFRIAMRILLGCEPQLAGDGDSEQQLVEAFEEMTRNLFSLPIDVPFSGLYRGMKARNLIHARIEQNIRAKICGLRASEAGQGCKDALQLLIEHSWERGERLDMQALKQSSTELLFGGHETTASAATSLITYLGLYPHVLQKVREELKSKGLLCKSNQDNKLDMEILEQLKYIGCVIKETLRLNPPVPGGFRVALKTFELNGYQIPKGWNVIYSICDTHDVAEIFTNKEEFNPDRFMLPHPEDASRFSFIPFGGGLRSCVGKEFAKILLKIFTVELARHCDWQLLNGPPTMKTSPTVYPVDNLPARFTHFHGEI
Procedure: COS-1 cells were transfected with either pcDNA3.1-P450RAI-1 or pcDNA3.1-P450RAI-2 in 6-well tissue culture plates as described above. 48 hours post-transfection cells were harvested, pooled, washed with DMEM medium and replated into duplicate 48-well plates with 5×10^5 cells per well.

P450RAI-2 [2] = target: T2, P450RAI-2 (Homo sapiens, UniProt Q9NR63); assay: Competitive inhibition of [3H]all-trans-RA metabolism in COS-1 cells transfected with pcDNA3.1-P450RAI-2; type: cell-based; design: The full-length human P450RAI-2 cDNA was cloned into the eukaryotic expression vector pcDNA 3.1; expressed in transfected cells; host or cells: COS-1 (African green monkey kidney), transient; details: COS-1 cells expressing P450RAI-2, 2 nM [3H]all-trans-RA
T2 sequence (Q9NR63 1-512): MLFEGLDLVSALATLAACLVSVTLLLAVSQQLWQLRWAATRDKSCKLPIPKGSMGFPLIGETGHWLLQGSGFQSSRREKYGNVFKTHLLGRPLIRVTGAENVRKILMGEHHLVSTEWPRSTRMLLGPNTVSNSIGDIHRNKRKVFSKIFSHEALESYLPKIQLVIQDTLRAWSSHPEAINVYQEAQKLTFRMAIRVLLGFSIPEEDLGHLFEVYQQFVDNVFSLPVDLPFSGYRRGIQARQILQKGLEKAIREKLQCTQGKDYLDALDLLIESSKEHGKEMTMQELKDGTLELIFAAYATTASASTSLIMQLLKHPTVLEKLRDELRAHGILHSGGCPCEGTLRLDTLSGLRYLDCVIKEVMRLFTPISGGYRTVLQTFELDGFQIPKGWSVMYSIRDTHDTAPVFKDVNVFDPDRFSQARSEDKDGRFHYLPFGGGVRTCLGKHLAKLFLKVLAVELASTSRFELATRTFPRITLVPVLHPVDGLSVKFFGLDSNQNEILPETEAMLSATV
Text: COS-1 cells were transfected with either pcDNA3.1-P450RAI-1 or pcDNA3.1-P450RAI-2 in 6-well tissue culture plates as described above.

Compound | P450RAI-2 expression (P450RAI-2 [1]; Day 14 Psoriasis Biopsy sample, northern blot) | P450RAI-2 expression (P450RAI-2 [1]; RAFT sample, RT-PCR) | P450RAI-2 expression (P450RAI-2 [1]; RAFT sample, northern blot) | Induction of P450RAI-2 expression (P450RAI-2 transcripts) | Effectiveness as competitor of all-trans-RA metabolism (P450RAI-1) | Effectiveness as competitor of all-trans-RA metabolism (P450RAI-2 [2])
CCOC(=O)c1ccc(C#Cc2ccc3c(c2)C(C)(C)CCS3)nc1 [Tazarotene] | appears to also be expressed | expression of P450RAI-2 | induced | – | – | –
CC1=C(/C=C/C(C)=C\C=C\C(C)=C\C(=O)O)C(C)(C)CCC1 [9-cis-RA, 9-cis retinoic acid] | – | – | – | not clear | less effective than all-trans-RA | less effective than all-trans-RA
CC1=C(/C=C/C(C)=C/C=C/C(C)=C/CO)C(C)(C)CCC1 [Retinol, retinol] | – | – | – | – | less effective competitors | less effective competitors
CC1=C(/C=C/C(C)=C/C=C/C(C)=C/C=O)C(C)(C)CCC1 [retinal] | – | – | – | – | less effective competitors | less effective competitors
